This note sets out measurements from patent US8399662B2, “O-acyloxime derivatives, preparation method thereof, and pharmaceutical composition containing the same for prevention and treatment of cardiovascular disease” (Korea Research Institute of Bioscience and Biotechnology, priority 2004, dated 2013).

Some results are limits rather than exact numbers.

The LD50 is the dose expected to kill half of the subjects tested. Lower therefore signals a more toxic substance. One may read the inhibition as the change of the read-out against control, counted positive when it falls.

The nature of one data set: in vivo. The conditions noted are these: both, ICR, mouse, in vivo, po. On the procedure: (§1) Specific pathogens free ICR mice of 4 weeks old (12 females and 12 males; 3 females and 3 males/dosage group) were raised in an animal chamber controlled with the temperature of 22±3° C., humidity of 55±10%, and illumination of 12L/12D cycle. The mice were acclimated for a week before the test. Feed for a test animal (CJ Corp., for mouse and rat) and water were supplied after sterilization and taken by the mice without any restriction.
(§2) The amount of 0.04 ml (100 mg/kg), 0.2 ml (500 mg/kg), and 0.4 ml (1,000 mg/kg) per mouse weight of 20 g was dosed individually to the mice by oral administration. The samples were dosed only one time, and adverse effect and mortality were observed during 7 days after the dosing as follows.
(§3) Additionally, on seventh day after the administration, the animals were sacrificed and dissected to examine internal organs with naked eye. Weight loss due to (E)-3,4-di-fluorobenzaldehyde O-benzoyloxime or (E)-2,3-di-fluorobenzaldehyde O-morpholine-4-carbonyloxime was observed by measuring weight changes at the intervals of 1 day since the dosage.

The next data set relates to ICR mice. Kind of data set: in vivo. The conditions noted are these: single oral dose up to 1,000 mg/kg, ICR mice, 7 days. As for the experimental part:
as §1, §2, §3

The target of the next data set is T1, Lp-PLA2 (Homo sapiens, UniProt Q13093).
T1 construct: LDL was isolated from the plasma by discontinuous density gradient ultra centrifugation; from tissue; host or cells: LDL fraction of human blood plasma from normal lipidemic volunteers
T1 sequence (Q13093 22-441): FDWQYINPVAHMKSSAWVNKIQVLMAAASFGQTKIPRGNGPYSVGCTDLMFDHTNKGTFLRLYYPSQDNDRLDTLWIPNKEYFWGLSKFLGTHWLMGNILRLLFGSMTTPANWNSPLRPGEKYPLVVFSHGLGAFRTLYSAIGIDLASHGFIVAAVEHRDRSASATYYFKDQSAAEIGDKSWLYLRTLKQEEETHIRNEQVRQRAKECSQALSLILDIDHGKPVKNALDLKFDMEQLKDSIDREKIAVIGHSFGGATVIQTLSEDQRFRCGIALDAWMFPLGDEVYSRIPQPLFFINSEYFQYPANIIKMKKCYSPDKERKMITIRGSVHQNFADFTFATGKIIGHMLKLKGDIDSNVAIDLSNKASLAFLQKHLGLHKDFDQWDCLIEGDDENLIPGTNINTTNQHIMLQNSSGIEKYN
Kind of data set: Measurement of Lp-PLA2 (PAF-AH) activity using [3H]PAF substrate and human LDL as enzyme source. The format is biochemical. The conditions noted are these: Lp-PLA2 from human LDL, average of two test results, read-out: Inhibition rate at 25 μM.

Method for Lp-PLA2: Blood was collected from normal lipidemic volunteers. EDTA was used as anticoagulant (1.5 mg/ml of blood). […] LDL was isolated from the plasma by discontinuous density gradient ultra centrifugation. Briefly, the plasma was centrifuged at 100,000×g at 4° C. for 20 hours. […] The LDL fraction in the top of the tube was collected and dialyzed overnight against three changes of phosphate buffer (pH 7.4), containing NaCl (150 mM), in the dark at 4° C. to remove NaBr and EDTA. The LDL in PBS was stored at 4° C. and used within 4 weeks. The purity of the fraction was confirmed by agarose gel electrophoresis and SDS-PAGE. Concentration of LDL protein was determined using bovine serum albumin (BSA) as a standard.
Lp-PLA2, the enzyme is also known as platelet-activating factor acetylhydrolase (PAF-AH), activity was measured using [^3H]PAF as a substrate. […] The reaction mixture, containing 20 μL of diluted human LDL (Lp-PLA2 source, 4-5 μg protein), 120 μL of PBS-EDTA, and 20 μL of test sample, was preincubated at 37° C. for 15 min. The reaction was initiated by the addition of 40 μL micelle substrate (0.1 μCi, final conc. 80 μM PAF) to measure initial rates of PAF-AH activity. […] The raw counts were corrected for background using a nonenzyme-containing blank and were expressed as nanomoles of PAF degraded per hour per milligram of protein.

In turn, `O=C(O/N=C/c1cccc(F)c1F)N1CCOCC1` [Example 30, (E)-2,3-di-fluorobenzaldehyde O-morpholine-4-carbonyloxime] showed a 50% lethal dose (LD50) at 7 days in the data set “in vivo” of over 1000 mg/kg. Further, the “toxicity (clinical symptoms, weight change, blood test, biochemical test of blood, necropsy)” value in the data set on ICR mice is on record as “did not show any toxicity”.

The compound `O=C(O/N=C/c1ccc(F)c(F)c1)c1ccccc1` [Example 21, (E)-3,4-di-fluorobenzaldehyde O-benzoyloxime] gave an LD50 at 7 days in “in vivo” of over 1000 mg/kg.

For `O=C(O/N=C(\OC(=O)c1ccccc1)c1ccccc1)c1ccccc1` [Example 16, (E)-1-benzoic acid-benzaldehyde O-benzoyloxime], the inhibition at 25 µM on Lp-PLA2 came out at 29%.
